Data from BindingDB's records for doi:10.1021/acsmedchemlett.6b00243 (Amgen, 2016).

Molecular target: Sodium channel protein type 5 subunit alpha (Homo sapiens, UniProt Q14524)
Assay: Inhibition of human Nav1.5 expressed in HEK293 cells assessed as inhibition of sodium current at holding potential of -125 mV measured for 3 to 5 mins by whole cell voltage clamp method

Chain of Sodium channel protein type 5 subunit alpha (Q14524 whole entry): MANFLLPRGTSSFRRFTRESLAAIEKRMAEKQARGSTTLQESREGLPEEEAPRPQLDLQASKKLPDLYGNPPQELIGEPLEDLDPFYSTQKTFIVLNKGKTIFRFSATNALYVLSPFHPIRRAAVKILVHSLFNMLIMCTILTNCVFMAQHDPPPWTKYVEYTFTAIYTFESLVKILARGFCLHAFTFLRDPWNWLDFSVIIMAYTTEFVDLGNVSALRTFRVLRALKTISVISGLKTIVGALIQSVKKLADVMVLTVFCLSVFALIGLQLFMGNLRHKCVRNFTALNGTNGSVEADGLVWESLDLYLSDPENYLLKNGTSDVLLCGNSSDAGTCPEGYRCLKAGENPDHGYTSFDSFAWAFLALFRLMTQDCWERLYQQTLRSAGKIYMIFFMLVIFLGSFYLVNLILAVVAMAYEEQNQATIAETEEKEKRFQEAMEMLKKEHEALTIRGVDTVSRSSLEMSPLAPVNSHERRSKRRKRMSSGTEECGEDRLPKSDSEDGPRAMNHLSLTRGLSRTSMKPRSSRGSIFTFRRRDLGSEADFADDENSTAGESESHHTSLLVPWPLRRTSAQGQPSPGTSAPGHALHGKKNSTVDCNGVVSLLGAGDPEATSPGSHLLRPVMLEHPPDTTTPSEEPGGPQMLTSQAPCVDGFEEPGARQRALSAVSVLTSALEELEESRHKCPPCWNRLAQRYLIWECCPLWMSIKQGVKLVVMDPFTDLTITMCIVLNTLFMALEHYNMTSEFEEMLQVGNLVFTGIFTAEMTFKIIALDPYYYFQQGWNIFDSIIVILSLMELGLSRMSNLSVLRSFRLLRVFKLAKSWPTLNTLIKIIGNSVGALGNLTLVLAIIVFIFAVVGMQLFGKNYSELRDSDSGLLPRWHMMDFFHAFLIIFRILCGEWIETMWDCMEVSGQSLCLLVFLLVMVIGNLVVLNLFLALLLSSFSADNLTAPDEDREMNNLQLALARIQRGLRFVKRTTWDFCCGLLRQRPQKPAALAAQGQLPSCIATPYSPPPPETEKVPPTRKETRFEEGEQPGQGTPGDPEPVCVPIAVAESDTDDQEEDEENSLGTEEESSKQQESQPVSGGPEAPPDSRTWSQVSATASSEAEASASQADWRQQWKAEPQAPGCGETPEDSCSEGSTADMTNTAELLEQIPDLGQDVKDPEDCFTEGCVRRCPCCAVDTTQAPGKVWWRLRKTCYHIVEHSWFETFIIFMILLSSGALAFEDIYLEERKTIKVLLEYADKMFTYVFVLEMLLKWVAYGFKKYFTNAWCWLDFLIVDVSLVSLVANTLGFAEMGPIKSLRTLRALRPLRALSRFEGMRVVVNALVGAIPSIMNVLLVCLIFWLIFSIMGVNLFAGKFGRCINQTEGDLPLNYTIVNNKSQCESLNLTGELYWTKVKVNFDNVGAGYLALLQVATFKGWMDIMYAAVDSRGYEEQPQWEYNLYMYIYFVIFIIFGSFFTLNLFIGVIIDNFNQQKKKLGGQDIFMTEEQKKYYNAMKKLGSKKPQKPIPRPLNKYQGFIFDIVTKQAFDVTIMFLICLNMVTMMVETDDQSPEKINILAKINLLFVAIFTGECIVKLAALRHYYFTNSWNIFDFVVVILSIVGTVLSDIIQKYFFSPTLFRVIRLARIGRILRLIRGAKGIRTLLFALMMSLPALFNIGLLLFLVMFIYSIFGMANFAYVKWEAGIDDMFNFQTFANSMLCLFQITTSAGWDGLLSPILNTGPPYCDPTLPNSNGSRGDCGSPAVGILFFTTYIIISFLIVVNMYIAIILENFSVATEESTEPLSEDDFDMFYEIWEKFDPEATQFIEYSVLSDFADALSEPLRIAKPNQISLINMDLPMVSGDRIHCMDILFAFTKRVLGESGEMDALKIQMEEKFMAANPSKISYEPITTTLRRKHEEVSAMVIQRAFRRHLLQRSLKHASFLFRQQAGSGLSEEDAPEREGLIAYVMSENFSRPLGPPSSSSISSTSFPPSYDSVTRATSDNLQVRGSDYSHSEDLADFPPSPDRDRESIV

| Structure (SMILES) | IC50 [µM] |
| --- | --- |
| COc1cc(C(F)(F)F)ccc1-c1cnnc2cc(S(=O)(=O)Nc3nccs3)ccc12 [US9012443, 259] | > 30 |
| COc1cc(C(F)(F)F)ccc1-c1n[nH]c(=O)c2cc(S(=O)(=O)Nc3nccs3)ccc12 [US9012443, 293] | > 30 |
